Data from US20220411525A1, “BCMA AS A TARGET FOR T CELL REDIRECTING ANTIBODIES IN B CELL LYMPHOMAS” (Janssen Pharmaceutica NV, priority 2021, published 2022).

Legend:
[1] = system: Jurkat cells; assay: BCMA membrane level by flow cytometry after γ-secretase inhibition, Jurkat; assay type: cell-based; conditions: 100nM, 24-48 h
Method: To evaluate whether other malignancies besides multiple myeloma (MM) can potentially be targeted by BCMA directed immunotherapy, B cell malignancy cell lines were assessed for BCMA expression by flow cytometry. […] Per FIG. 1A, B cell malignancy cell lines were cultured and basal levels of BCMA were assessed by flow cytometry and compared to isotype controls. (n=3-8). Dotted line indicates no increase compared to isotype control. In accordance with FIG. 1B, cell lines were treated for 24-48h with 100nM γ-secretase inhibitor or with medium control and BCMA was assessed by flow cytometry. Values are represented as fold increase compared to 0 nM γ-secretase inhibitor. (n=3-12) Dotted line indicates no increase compared to 0 nM γ-secretase inhibitor. FIG. 1C represents the results of an asssessment of soluble BCMA by ELISA in supernatants of B cell malignancy cell lines after treatment with 0 nM or 100 nM γ-secretase inhibitor for 24-48 h. (n=2). […] The P value was calculated by paired t test of Wilcoxon test (FIG. 1A-1B) or simple linear regression (FIG. 1E). […]
Since BCMA is known to be cleaved off by γ-secretase, it was evaluated whether inhibition of this enzyme would lead to enhanced BCMA levels on these B cell lines. […]
Flow cytometry. […] After antibody staining, samples were washed using PBA and acquired on BD FACS Canto or LSR Fortessa flow cytometer and analysed with FlowJo v10. […]

[2] = system: B cell malignancy cell lines; assay: Viability of cell lines under γ-secretase inhibition; assay type: cell-based; conditions: 100nM γ-secretase inhibitor, 24-48 h
Method: Since BCMA is known to be cleaved off by γ-secretase, it was evaluated whether inhibition of this enzyme would lead to enhanced BCMA levels on these B cell lines. To assess this, the different B cell malignancy lines were incubated for 24-48 h with 100nM γ-secretase inhibitor (Ly411575) and BCMA fold increase was compared to unstimulated cells. Viability of the different cell lines was not affected by γ-secretase inhibition (FIG. 7A). […] Besides the cell lines which already had high basal levels of BCMA (U266, RPMI-8226, MWCL1 and BCWM.1) also cell lines which had low basal expression of BCMA, such as JeKo-1 and OCI-Ly7 were able to upregulate BCMA after γ-secretase inhibition (FIG. 1B). […] This was studied by determination of soluble BCMA (sBCMA) levels in supernatants of B cell malignancy cell lines, which were cultured for 24 or 48h in the absence or presence of γ-secretase inhibitor. Indeed, sBCMA levels were detectable upon culture of different selected cell lines (except for Jurkat), and increased upon longer culture times (FIG. 1C).

SMILES: C[C@H](NC(=O)[C@@H](O)c1cc(F)cc(F)c1)C(=O)N[C@@H]1C(=O)N(C)c2ccccc2-c2ccccc21 [Ly411575]
- BCMA level after γ-secretase inhibition [1]: no upregulation of BCMA
- Viability of the different cell lines [2]: not affected
